This test has as its target T1, human TLR9 (Homo sapiens, UniProt Q9NR96).
T1 construct: host or cells: HEK-Blue cells (HEK293-derived reporter line)
T1 sequence (Q9NR96 26-1032): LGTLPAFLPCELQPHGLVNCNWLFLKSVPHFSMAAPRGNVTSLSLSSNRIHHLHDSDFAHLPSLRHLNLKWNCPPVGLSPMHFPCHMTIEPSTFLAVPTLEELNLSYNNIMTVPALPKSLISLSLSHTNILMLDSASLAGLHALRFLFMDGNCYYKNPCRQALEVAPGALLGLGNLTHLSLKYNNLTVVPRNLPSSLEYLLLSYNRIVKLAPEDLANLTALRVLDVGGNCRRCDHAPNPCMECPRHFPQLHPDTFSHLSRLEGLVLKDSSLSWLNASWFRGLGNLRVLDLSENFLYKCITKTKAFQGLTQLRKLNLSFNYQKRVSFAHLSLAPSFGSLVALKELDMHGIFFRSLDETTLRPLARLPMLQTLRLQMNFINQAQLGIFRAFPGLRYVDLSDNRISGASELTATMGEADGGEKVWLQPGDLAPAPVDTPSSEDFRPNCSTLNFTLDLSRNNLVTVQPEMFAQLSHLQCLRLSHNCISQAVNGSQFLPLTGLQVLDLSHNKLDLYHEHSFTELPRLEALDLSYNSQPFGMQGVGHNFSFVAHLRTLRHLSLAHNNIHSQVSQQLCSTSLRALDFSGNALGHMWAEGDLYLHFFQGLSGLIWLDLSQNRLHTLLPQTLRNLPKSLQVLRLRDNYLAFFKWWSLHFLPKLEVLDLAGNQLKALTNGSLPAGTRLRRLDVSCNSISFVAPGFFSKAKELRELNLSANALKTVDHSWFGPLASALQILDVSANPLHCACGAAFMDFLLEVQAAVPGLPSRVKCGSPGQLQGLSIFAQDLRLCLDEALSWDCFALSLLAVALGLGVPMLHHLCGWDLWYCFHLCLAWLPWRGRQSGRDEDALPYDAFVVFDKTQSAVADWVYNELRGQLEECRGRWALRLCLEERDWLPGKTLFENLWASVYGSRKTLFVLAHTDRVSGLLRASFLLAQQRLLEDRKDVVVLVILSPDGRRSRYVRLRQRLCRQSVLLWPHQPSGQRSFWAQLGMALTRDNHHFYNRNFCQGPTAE
Briefly: TLR9 inhibition reporter assay (HEK-Blue cells, secreted embryonic alkaline phosphatase reporter). The format is cell-based. The protocol: TLR7/8/9 Inhibition Reporter Assays
HEK-Blue™-cells (Invivogen) overexpressing human TLR7, TLR8 or TLR9 receptors were used for screening inhibitors of these receptors using an inducible SLAP (secreted embryonic alkaline phosphatase) reporter gene under the control of the […] minimal promoter fused to five NF-κB and AP-1-binding sites. Briefly, cells are seeded into Greiner 384 well plates (15000 cells per well for TLR7, 20,000 for TLR8 and 25,000 for TLR9) and then treated with test compounds in DMSO to yield a final dose response concentration range of 0.05 nM-50 μM. After a 30 minute compound pre-treatment at room temperature, the cells are then stimulated with a TLR7 ligand (gardiquimod at a final concentration of 7.5 μM), TLR8 ligand (R848 at a final concentration of 15.9 μM) or TLR9 ligand (ODN2006 at a final concentration of 5 nM) to activate NF-κB and AP-1 which induce the production of SLAP. After a 22 hour incubation at 37° C., […], SLAP levels are determined with the addition of HEK-Blue™ Detection reagent (Invivogen), a cell culture medium that allows for detection of SLAP, according to manufacturer's specifications. The percent inhibition is determined as the […] in the HEK-Blue signal present in wells treated with agonist plus DMSO alone compared to wells treated with a known inhibitor.
(Reporter assays use an easily measured gene product as a stand-in for the process of interest.)

Setting [1] is: HEK-Blue cells overexpressing human TLR9, stimulated with ODN2006 5 nM, 22 hour incubation, reporter readout.
[2] abbreviates: HEK-Blue cells overexpressing human TLR9, stimulated with ODN2006 5 nM, read-out: TLR 9 IC50.

Read-outs that look alike come from different tables or passages of the source.

A word on the IC50: it is the concentration at which inhibition is half-maximal. For `Cc1cc(C2CCN(C3CC4CCC(C3)N4C3CCC3)CC2)cc2c1nc(-c1ccc(S(C)(=O)=O)c(F)c1)n2C` (single isomer, unassigned) [Example 123, 6-(1-(8-cyclobutyl-8-azabicyclo[3.2.1]octan-3-yl)piperidin-4-yl)-2-(3-fluoro-4-(methylsulfonyl)phenyl)-1,4-dimethyl-1H-benzo[d]imidazole], the IC50 under setting [1] turned out to be 890 nM and the concentration for half-maximal inhibition (IC50) under setting [2] was found to be 889 nM.
As for `COc1ccc(-c2nc3c(C)cc(C4CCN(C5CC6CCC(C5)N6CC5CCC5)CC4)cc3n2C)cc1OC` (single isomer, unassigned) [Example 150, 6-(1-(8-(cyclobutylmethyl)-8-azabicyclo[3.2.1]octan-3-yl)piperidin-4-yl)-2-(3,4-dimethoxyphenyl)-1,4-dimethyl-1H-benzo[d]imidazole], half-maximal inhibition (IC50) required 32 nM. Besides, under setting [2], the IC50 amounted to 32 nM.
Regarding `COc1ccc(-c2nc3c(C)cc(C4CCN(C5CC6CCC(C5)N6CC5CCC5)CC4)cc3n2C)cc1OC` (single isomer, unassigned) [Example 151, 6-(1-(8-(cyclobutylmethyl)-8-azabicyclo[3.2.1]octan-3-yl)piperidin-4-yl)-2-(3,4-dimethoxyphenyl)-1,4-dimethyl-1H-benzo[d]imidazole], the IC50 was found to be 170 nM. Also, the IC50 under setting [2] turned out to be 172 nM.
The compound `Cc1cc(C2CCN(C3CC4CCC(C3)N4CC3CC3)CC2)cc2c1nc(-c1ccc(S(C)(=O)=O)cc1)n2C` (single isomer, unassigned) [Example 155, 6-(1-(8-(cyclopropylmethyl)-8-azabicyclo[3.2.1]octan-3-yl)piperidin-4-yl)-1,4-dimethyl-2-(4-(methylsulfonyl)phenyl)-1H-benzo[d]imidazole] returned an IC50 of 160 nM. Besides, the IC50 under setting [2] stood at 163 nM.
The compound `Cc1cc(C2CCN(C3CC4CCC(C3)N4CC3CCC3)CC2)cc2c1nc(-c1ccc(S(C)(=O)=O)cc1)n2C` (single isomer, unassigned) [Example 157, 6-(1-(8-(cyclobutylmethyl)-8-azabicyclo[3.2.1]octan-3-yl)piperidin-4-yl)-1,4-dimethyl-2-(4-(methylsulfonyl)phenyl)-1H-benzo[d]imidazole] had an IC50 of 340 nM. For the same compound, under setting [2], the IC50 is 339 nM.
Turning to `COc1cc(-c2nc3c(C)cc(C4CCN(C5CC6CCC(C5)N6C5CCC5)CC4)cc3n2C)cn2ncnc12` (single isomer, unassigned) [Example 356, 6-(6-(1-(8-cyclobutyl-8-azabicyclo[3.2.1]octan-3-yl)piperidin-4-yl)-1,4-dimethyl-1H-benzo[d]imidazol-2-yl)-8-methoxy-[1,2,4]triazolo[1,5-a]pyridine], the IC50 stood at 41 nM under setting [2] and 41 nM (HEK-Blue human TLR9 reporter cells).
As for `COc1cc(-c2nc3c(C)cc(C4CCN(C5CCN(CC(C)C)CC5)CC4)cc3[nH]2)cn2ncnc12` [Example 61, 6-(6-(1′-isobutyl-[1,4′-bipiperidin]-4-yl)-4-methyl-1H-benzo[d]imidazol-2-yl)-8-methoxy-[1,2,4]triazolo[1,5-a]pyridine tris(2,2,2-trifluoroacetate)], the IC50 was determined as 49 nM under setting [1] and 49 nM under setting [2].
With `Cc1cc(C2CCN(C3CCN(CC(C)C)CC3)CC2)cc2[nH]c(-c3ccc(OC(F)(F)F)cc3)nc12` [Example 63, 6-(1′-isobutyl-[1,4′-bipiperidin]-4-yl)-4-methyl-2-(4-(trifluoromethoxy)phenyl)-1H-benzo[d]imidazole], the IC50 was found to be 200 nM under setting [1] and 196 nM under setting [2].
On to `COc1ccc(-c2nc3c(C)cc(C4CCN(C5CCN(CC(C)C)CC5)CC4)cc3[nH]2)cc1Cl` [Example 64, 2-(3-chloro-4-methoxyphenyl)-6-(1′-isobutyl-[1,4′-bipiperidin]-4-yl)-4-methyl-1H-benzo[d]imidazole], for which the IC50 came to 91 nM under setting [1] and 91 nM under setting [2].
With `Cc1cc(C2CCN(C3CCN(CC(C)C)CC3)CC2)cc2[nH]c(-c3ccc4c(c3)OC(F)(F)O4)nc12` [Example 65, 2-(2,2-difluorobenzo[d][1,3]dioxol-5-yl)-6-(1′-isobutyl-[1,4′-bipiperidin]-4-yl)-4-methyl-1H-benzo[d]imidazole tris(2,2,2-trifluoroacetate)], the IC50 under setting [1] stood at 300 nM and the IC50 under setting [2] was found to be 297 nM.
`Cc1cc(C2CCN(C3CCN(CC(C)C)CC3)CC2)cc2[nH]c(-c3ccc(S(C)(=O)=O)c(F)c3)nc12` [Example 66, 2-(3-fluoro-4-(methylsulfonyl)phenyl)-6-(1′-isobutyl-[1,4′-bipiperidin]-4-yl)-4-methyl-1H-benzo[d]imidazole]: the IC50 is, setting by setting: under setting [1], 69 nM; under setting [2], 69 nM.
For the compound `Cc1cc(C2CCN(C3CCN(CC(C)C)CC3)CC2)cc2[nH]c(-c3ccc(S(C)(=O)=O)c(Br)c3)nc12` [Example 67, 2-(3-bromo-4-(methylsulfonyl)phenyl)-6-(1′-isobutyl-[1,4′-bipiperidin]-4-yl)-4-methyl-1H-benzo[d]imidazole], the 50% inhibitory concentration (IC50) reads like this: under setting [1], 44 nM; under setting [2], 44 nM.
`Cc1cc(C2CCN(C3CCN(CC(C)C)CC3)CC2)cc2[nH]c(-c3ccc(C4CC4)cc3)nc12` [Example 68, 2-(4-cyclopropylphenyl)-6-(1′-isobutyl-[1,4′-bipiperidin]-4-yl)-4-methyl-1H-benzo[d]imidazole]: the IC50 runs as follows: under setting [1], 85 nM; under setting [2], 85 nM.
As for `Cc1cc(C2CCN(C3CCN(CC(C)C)CC3)CC2)cc2[nH]c(-c3ccc(OC(F)F)c(F)c3)nc12` [Example 69, 2-(4-(difluoromethoxy)-3-fluorophenyl)-6-(1′-isobutyl-[1,4′-bipiperidin]-4-yl)-4-methyl-1H-benzo[d]imidazole tris(2,2,2-trifluoroacetate)], the concentration for half-maximal inhibition (IC50) came to 240 nM under setting [1] and 241 nM under setting [2].
For the compound `Cc1cc(C2CCN(C3CCN(CC(C)C)CC3)CC2)cc2[nH]c(-c3nc4ccccc4s3)nc12` [Example 70, 2-(6-(1′-isobutyl-[1,4′-bipiperidin]-4-yl)-4-methyl-1H-benzo[d]imidazol-2-yl)benzo[d]thiazole tris(2,2,2-trifluoroacetate)], the IC50 is 210 nM under setting [1] and 208 nM under setting [2].
Take `Cc1noc(C)c1-c1nc2c(C)cc(C3CCN(C4CCN(CC(C)C)CC4)CC3)cc2[nH]1` [Example 71, 4-(6-(1′-isobutyl-[1,4′-bipiperidin]-4-yl)-4-methyl-1H-benzo[d]imidazol-2-yl)-3,5-dimethylisoxazole]: the half-inhibitory concentration (IC50) runs as follows: under setting [1], 1800 nM; under setting [2], 1770 nM.
Consider `Cc1cc(C2CCN(C3CCN(CC(C)C)CC3)CC2)cc2[nH]c(-c3cccc4ncccc34)nc12` [Example 72, 5-(6-(1′-isobutyl-[1,4′-bipiperidin]-4-yl)-4-methyl-1H-benzo[d]imidazol-2-yl)quinoline tris(2,2,2-trifluoroacetate)], for which the IC50 is, setting by setting: under setting [1], 88 nM; under setting [2], 88 nM.
On to `Cc1cc(C2CCN(C3CCN(CC(C)C)CC3)CC2)cc2[nH]c(-c3ccc(OC(F)(F)F)c(Cl)c3)nc12` [Example 73, 2-(3-chloro-4-(trifluoromethoxy)phenyl)-6-(1′-isobutyl-[1,4′-bipiperidin]-4-yl)-4-methyl-1H-benzo[d]imidazole tris(2,2,2-trifluoroacetate)], for which the IC50 came to 270 nM under setting [1] and 270 nM under setting [2].

The values are drawn from patent US12492188B2, “1H-benzo[D]imidazole derivatives as TLR9 inhibitors for the treatment of fibrosis” (BRISTOL-MYERS SQUIBB COMPANY, priority 2020, dated 2025).
